Experimental data: article PMC7146544, “Dual Plasmepsin-Targeting Antimalarial Agents Disrupt Multiple Stages of the Malaria Parasite Life Cycle” (Cell Host & Microbe, 2020)
Where “and” joins values, the source holds several entries; their conditions need not be identical. Identical values can stand only once. Like-named read-outs stand apart in the source and are kept apart here.

Tests used:
[1] = target: T1, recombinant PMX protein (rPMX) (Plasmodium falciparum, UniProt Q8IAS0); assay: biochemical
Method: (§2) All wells were backfilled to 200 nL DMSO such that it remains constant across the assay plates (1% final). IC50 values were calculated by Dotmatics 5.3 and Spotfire 7.11.1 software using a nonlinear regression four-parameter fit analysis. The equation used is sigmoidal dose response (variable slope), Y = bottom + (top − bottom)/(1+10((logEC50 − X) × Hill Slope)). Compound Ki values were calculated from the IC50s using the Cheng-Prusoff equation, Ki = IC50/(1 + [S]/Km).
(§3) All compound potency assays were conducted in 20 μl total volume. For each assay, 10 μl of recombinant enzymes in respective assay buffers (Table) were dispensed into compound containing assay plates using a Multidrop Combi dispenser and allowed to incubate for 15 min. The reactions were started with a further 10 μl addition of FRET peptide substrates and reactions incubated at 37 °C for various times (Table).Samples were excited at 340 nm and fluorescence emission measured at 492 nm using an Envision fluorescence plate reader (Perkin-Elmer).

3D7 parasite cultures = assay: Time of drug killing; format: cell-based, Plasmodium falciparum; details: 80nM WM4, 40nM WM5, 5nM WM382, added to early rings
Method: 3D7 parasite cultures were synchronized using 5% sorbitol (Sigma) twice at 46 h intervals then again when the culture was a mix of late schizonts and early rings. […] The parasitemia of each culture was quantitated every 8 h for 48 h by collecting 50 μL samples for counting by flow cytometry (as previously described). The developmental stage of the parasites was confirmed at each time point by microscopic examination of Giemsa stained thin blood films. Media and compound were replaced at the 32 h time point.

[2] = target: T1, recombinant PMX protein (rPMX)
Method: as §2, §3

[3] = tested on: WM5 and 4 resistant P. falciparum; assay: microbe, parasite or virus in culture; format: cell-based, Plasmodium falciparum
Method: (§1) After 72 h incubation at 37°C each well was fixed at room temperature for 30 min with 50 μL of 0.25% glutaraldehyde (ProSciTech) diluted in PBS. Following centrifugation at 1200 rpm for 1 min, supernatants were discarded and parasites were stained with 50 μL of 5X SYBR Green (Invitrogen) diluted in PBS. 50,000 cells were counted by flow cytometry using a Cell Lab Quanta SC – MPL Flow Cytometer (Beckman Coulter) ([Bacon et al., 2007]). Growth was expressed as a percentage of the parasitemia obtained using a vehicle control. All samples were tested in triplicate. EC50 values were determined using GraphPad Prism.
The parent and resistant lines were then cloned by limiting dilution, the EC50 for each line was determined and genomic DNA was purified from clonal parasites (QIAGEN Blood and Tissue Kit).

HepG2 cells = assay: EC50 for HepG2 cells; format: cell-based; details: Homo sapiens
[4] = target: T2, P. falciparum aspartic protease, PMV (Plasmodium falciparum, UniProt Q8I6Z5); assay: Peptide cleavage (FRET) assay, PMV; format: biochemical; details: calculated from IC50 with Cheng-Prusoff equation
T2 construct: made in house

P. falciparum [5] = assay: P. falciparum asexual blood-stage growth inhibition (LDH or SYBR Green flow cytometry); format: cell-based, Plasmodium falciparum
Method: For High Throughput Screening (HTS) of compounds we used the lactate dehydrogenase (LDH) assay to detect parasitemia ([Makler et al., 1993], [Oduola et al., 1997]) formatted in a 384 well assay using an Echo555 (Labcyte). The P. falciparum assay was conducted with minor modifications ([Gamo et al., 2010]). Briefly, an inoculum of parasitized red blood cells at 0.7% parasitemia and 2% hematocrit in RPMI-1640, 5% AlbuMAX, 2% d-sucrose, 0.3% glutamine and 150 μM hypoxanthine was used for the assay. Assay plates (Greiner #781098, 384 well, white, tissue culture treated) were prepared by dispensing 1 μl of compound from master plates at 20 μM (10% DMSO stock) into 9ul pre-dispensed growth media in each well. The parasite inoculum (30 μl) was dispensed into plates containing compounds using a Multidrop Combi dispenser (Thermo Scientific). Final assay volume was 40 μl and final compound concentration was 500 nM. The positive growth control was 0.25% DMSO and the negative growth control was 100 nM chloroquine. Plates were incubated at 37 °C for 72 h in an atmosphere of […]. Following 72 h growth, plates were sealed with parafilm and frozen at −80 °C overnight. Plates were thawed at room temperature for at least 4 h prior to LDH activity being measured. 45 μl of fresh LDH reaction mix (174 mM sodium l-lactate, 214 μM 3-acetyl pyridine adenine dinucleotide (APAD), 270 μM Nitro Blue tetrazolium chloride (NBT), 4.35 U ml-1 diaphorase, 0.7% Tween 20, 100 mM Tris-HCl pH 7.5) was dispensed into each well using a Multidrop Combi dispenser. Plates were shaken to ensure mixing and absorbance at 650 nm was measured in an EnVision (PerkinElmer) plate reader after 30 min of incubation at room temperature. Data were normalized to percent growth inhibition using positive and negative controls and analyzed using Dotmatics 5.3 and Spotfire 7.11.1 (Tibco) software.
All wells were backfilled with DMSO to 45 nL such that this remained constant (0.1% DMSO). The positive growth control was 0.1% DMSO and the negative growth control was 100 nM chloroquine. Parasite inoculum (40 μl) was dispensed into plates containing compounds as described above. All other culture and lactate dehydrogenase (LDH) reaction methods are as described previously ([Makler et al., 1993], [Oduola et al., 1997]).
as §1

[6] = Pharmacokinetic attributes (no method given); details: in vivo
P. berghei [7] = assay: Peters' 4-day suppressive test for P. berghei infection in mice; format: in vivo, Plasmodium berghei; details: intraperitoneal, 20 mpk q.d., 4 days, Swiss mice
Method: For results shown in Figure 1 A male Swiss mice were infected intraperitoneally (IP) with 1 × 10^6 P. berghei ANKA-parasitised red blood cells withdrawn from a previously infected donor mouse. Test compounds were prepared in a vehicle consisting of 10% DMSO/90% Solutol (5% Solutol® HS-15 in 0.9% saline). […] Peripheral blood samples were taken 24 h after administration of the last dose, and parasitemia was measured by microscopic analysis of Giemsa-stained blood smears. Parasitemia values were averages for 6 mice per group and are expressed as percent parasitemia. For results shown in Figure 4A ‘donor’ female Swiss mice were infected intraperitoneally (IP) with blood stage P. berghei parasites constitutively expressing GFP (P. berghei ANKA GFPcon 259cl2 ([Franke-Fayard et al., 2004]). Three days later, groups of 4 ‘acceptor’ Swiss mice were infected intravenously (IV) with 1 × 10^7 parasitised erythrocytes from the ‘donor’ mice. Two h post infection, experimental mice (4 per cohort) were left untreated (control mice) or treated orally on 4 consecutive days with test drugs formulated in 20% DMSO/60% PG/20% water (v/v/v) or chloroquine dissolved in water. […] Peripheral blood samples were taken 12 h after the last treatment, and parasitemia measured by flow cytometry (proportion of GFP-positive cells in 100,000 recorded events using FACSCalibur, BD) and microscopic analysis of Giemsa-stained blood smears. Parasitemia values were averages for 4 mice per group and are expressed as percent parasitemia.

[8] = tested on: protein processing by PMIX and PMX in P. falciparum; assay: Processing inhibition assays (immunoblot of merozoites and supernatants); format: cell-based, Plasmodium falciparum; details: E64 10 μM, WM4 40 nM, WM382 2.5 nM
Method: Processing inhibition assays were performed as previously described ([Boyle et al., 2010]). Synchronized late trophozoite/early schizont cultures to which protease inhibitors had already been added, were passed over LD magnetic columns (Miltenyi Biotech) to remove uninfected erythrocytes. The cysteine protease inhibitor E64 (Sigma) was used at 10 μM. […] A control dish without any protease inhibitor was also included. Parasites were eluted from columns with complete RPMI 1640 culture medium to which the appropriate inhibitor at the same concentration had been added. Eluted parasites were adjusted to 5x10^6 schizonts/mL and 150 ul added per well of a 96-well flat-bottomed culture dish. […] Parasites from each condition were spun at 10000 g/10 min so that merozoite and supernatant fractions could be separately collected. Proteins from both fractions were extracted with Reducing sample buffer and separated on 4%–12% or 3%–8% acrylamide gels (NuPAGE, Invitrogen).

P. falciparum 3D7 = assay: Ring stage survival assay for artesunate; format: cell-based, Plasmodium falciparum; details: 3D7, 700 nM artesunate 6 h, then 66 h drug-free
Method: The method for determining sensitivity to artesunate was as described ([Kite et al., 2016]). Parasites were synchronized twice with 5% sorbitol at 46 h intervals and again when they were a mixture of schizonts and early rings. Triplicate 1 mL cultures were set up in 24 well plates (Falcon) at 0.5% parasitemia and 2% hematocrit with either 700 nM artesunate (Sigma) or 0.1% DMSO vehicle control. Following 6 h incubation, the cells were washed and incubated in drug-free media for a further 66 h. A 50 μL sample of each culture was fixed with 0.25% glutaraldehyde and stained with 5X SYBR then parasitemia was determined by flow cytometry. Percentage survival is parasitemia relative to vehicle treated parasites.
The percentage survival of all parasite lines was high in our experiments (∼5% for 3D7) was high compared to that described previously ([Kite et al., 2016]) most likely because we used a FACS based method was used for detection and quantitation. However, we were clearly able to distinguish the resistant CAM3 R539T line from the sensitive CAM3 Rev and 3D7 parasite lines.

Dd2 parasites = format: cell-based, Plasmodium falciparum; details: inocula 10^5 to 10^9 parasites, up to 90 days
Source text: Each experiment was monitored by weekly microscopic examination of thin blood films. Media and compound were replaced three times each week.

P. berghei [9] = assay: Dose ranging test for P. berghei infection in mice; format: in vivo, Plasmodium berghei; details: chloroquine 10 mpk oral q.d. 4 days
Method: Control mice were treated orally with chloroquine for 4 days under q.d. dosing regimen at 10 mpk/day. From day 2 to 30 post infection, parasitemia was measured daily by flow cytometry and microscopy, as described above. Survival of animals to day 30 post infection, with no detectable parasites in the peripheral blood, were considered to be cured (i.e., 100% efficacy).

P. falciparum [10] = assay: P. falciparum humanized NOD-scid IL2R_null mouse model; details: chloroquine 50 mpk oral q.d. 4 days from day 3
Method: Compounds were tested in the murine P. falciparum SCID model ([Angulo-Barturen et al., 2008]). […] The mice were intravenously infected with 2 × 10^7 P. falciparum Pf3D7-infected erythrocytes (day 0) ([Angulo-Barturen et al., 2008]). On day 3 after infection, mice were randomly allocated to treatments that were administered once a day for 4 consecutive days (n = 3 mice) by oral gavage at 10 mL/kg. Parasitemia was measured by microscopy. Chimerism was monitored by flow cytometry using anti-murine erythrocyte TER119 monoclonal antibody (PharMingen, San Diego, CA) and SYTO-16 and then analyzed by flow cytometry in serial 2 μL blood samples taken every 24 h until assay completion.

[11] = 3D7 parasite line, asexual blood stage, read-out: EC50, inhibition of P. falciparum growth

T1 sequence (Q8IAS0 222-573): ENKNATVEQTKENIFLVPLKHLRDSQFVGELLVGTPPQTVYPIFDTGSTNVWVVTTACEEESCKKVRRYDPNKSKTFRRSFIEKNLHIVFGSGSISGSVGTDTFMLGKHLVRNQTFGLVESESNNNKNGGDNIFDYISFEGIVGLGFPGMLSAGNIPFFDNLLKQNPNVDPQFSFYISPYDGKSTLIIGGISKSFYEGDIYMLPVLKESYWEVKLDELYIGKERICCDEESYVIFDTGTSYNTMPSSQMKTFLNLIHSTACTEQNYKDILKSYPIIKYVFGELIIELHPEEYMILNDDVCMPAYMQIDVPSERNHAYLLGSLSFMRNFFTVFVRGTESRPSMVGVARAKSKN
T2 sequence (Q8I6Z5 whole entry): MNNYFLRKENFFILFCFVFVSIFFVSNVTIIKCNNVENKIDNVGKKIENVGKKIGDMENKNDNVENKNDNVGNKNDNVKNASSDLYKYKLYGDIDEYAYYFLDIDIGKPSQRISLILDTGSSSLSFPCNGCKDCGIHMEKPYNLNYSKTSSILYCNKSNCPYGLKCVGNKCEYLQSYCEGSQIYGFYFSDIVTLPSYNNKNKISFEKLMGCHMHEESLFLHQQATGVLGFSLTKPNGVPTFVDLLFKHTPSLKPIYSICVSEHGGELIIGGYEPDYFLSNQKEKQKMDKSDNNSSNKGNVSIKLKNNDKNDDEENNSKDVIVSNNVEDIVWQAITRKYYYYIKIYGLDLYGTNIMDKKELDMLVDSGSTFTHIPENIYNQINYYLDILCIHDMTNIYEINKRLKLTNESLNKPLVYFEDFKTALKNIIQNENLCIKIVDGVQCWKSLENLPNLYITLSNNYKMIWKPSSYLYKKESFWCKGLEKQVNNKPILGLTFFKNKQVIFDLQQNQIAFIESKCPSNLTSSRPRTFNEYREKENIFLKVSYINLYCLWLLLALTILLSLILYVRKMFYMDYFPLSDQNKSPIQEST

For `CC(C)CC(c1ccc(C(F)(F)F)c(C(=O)N2Cc3nccnc3C2)c1)N1C(=N)NC(CC2CC2)(c2ccccc2)CC1=O` (racemic) [WM5], the IC50 [1] was 3.02 nM, the Ki [1] was 1.9 ± 0.6 nM and the “stage of arrest of blood-stage development” value (3D7 parasite cultures) was “arrested at late schizont stage”. For the same compound, the “Fold Selectivity PMX v PMV” value [2] was 1,755 fold, the EC50 ([3]; Plasmodium falciparum, 3D7, read-out: EC50, 3D7, parental line 3D7) was 13.5 ± 0.78 nM and the EC50 ([3]; Plasmodium falciparum, 3D7, read-out: EC50, 3D7-WM4.1, WM4-resistant line 3D7-WM4.1) was 202 ± 7.23 nM. For the same compound, the EC50 ([3]; Plasmodium falciparum, 3D7, read-out: EC50, 3D7-WM4.2, WM4-resistant line 3D7-WM4.2, Figure S1) was 144 ± 46.6 nM, the EC50 ([3]; Plasmodium falciparum, 3D7, read-out: EC50, 3D7-WM5.1, WM5-resistant line 3D7-WM5.1) was 172 ± 6.95 nM and the EC50 ([3]; Plasmodium falciparum, 3D7, read-out: EC50, 3D7-WM5.2, WM5-resistant line 3D7-WM5.2, Figure S1) was 118 ± 4.7 nM. For the same compound, the EC50 ([3]; Plasmodium falciparum, 3D7, read-out: EC50, 3D7-WM5.3, WM5-resistant line 3D7-WM5.3, Figure S1) was 51.8 ± 19.7 nM, the “fold resistance of 3D7-WM5.1 compared with 3D7” value ([3]; printed as X in Figure 1E) was 13 fold and the EC50 ([3]; read-out: EC50, 3D7-WM4.1, WM4-resistant line 3D7-WM4.1) was 107 ± 2.2 nM. For the same compound, the EC50 ([3]; read-out: EC50, 3D7-WM5.1, WM5-resistant line 3D7-WM5.1) was 172 nM and 117 nM, the EC50 ([3]; read-out: EC50, 3D7, parental line 3D7) was 11.1 ± 3.7 nM and the EC50 (HepG2 cells) was 17900 ± 2000 nM. The Ki [4] was 3300 ± 540 nM, the EC50 (P. falciparum [5]; Plasmodium falciparum, Figure 2C, mean ± SD, three experiments, read-out: EC50 P. falciparum) was 9.3 ± 2.7 nM and the pharmacokinetic attributes [6] was “did not have desirable pharmacokinetic attributes”. The “in vivo activity against P. berghei infection” value (P. berghei [7]) was “partial efficacy”.
With `CC(C)C[C@H](NC(=O)[C@H]1O[C@@H]1C(=O)O)C(=O)NCCCCN=C(N)N` [E64, reference compound] the “AMA1 processing in merozoites” value [8] was “not affected”, the ASP processing [8] was “ASP was processed” and the MTRAP processing [8] was “did not inhibit its processing”. For the same compound, the “PMIX processing in parasites” value [8] was “not inhibited”, the RAP1 processing [8] was “Two processed forms of RAP1 (p82 and p69) are detected” and the RON3 processing [8] was “did not block processing”. For the same compound, the “Rh1 processed fragments, release into the supernatant” value [8] was “the processed fragments were released into the supernatant”.
`CC(NC(=O)c1cccc(C(c2ccccc2)N2C(=N)NC(C)(C(C)C)CC2=O)c1)c1ccccc1` (stereo not shown) [R-WM4] showed an EC50 (P. falciparum [5]; [11]) of 4.6 nM.
`CC(C)CC(c1ccc(C(F)(F)F)c(C(=O)N2Cc3nccnc3C2)c1)N1C(=N)NC(CC2CC2)(c2ccccc2)CC1=O` (stereo not shown) [R-WM5] showed an EC50 (P. falciparum [5]; [11]) of 10 nM.
Compound `CC(NC(=O)c1cccc(C(c2ccccc2)N2C(=N)NC(C)(C(C)C)CC2=O)c1)c1ccccc1` (stereo not shown) [S-WM4] has an EC50 (P. falciparum [5]; [11]) of 440 ± 113 nM.
Compound `CC(C)CC(c1ccc(C(F)(F)F)c(C(=O)N2Cc3nccnc3C2)c1)N1C(=N)NC(CC2CC2)(c2ccccc2)CC1=O` (stereo not shown) [S-WM5] has an EC50 (P. falciparum [5]; [11]) of 688 ± 218 nM.
In the case of `C[C@H]1[C@H](OC(=O)CCC(=O)O)O[C@@H]2O[C@@]3(C)CC[C@H]4[C@H](C)CC[C@@H]1[C@@]24OO3` [artesunate], the “percentage survival, ring stage survival assay” value (P. falciparum 3D7) is reported as about 5%.
For `O=C1C(O)=C([C@H]2CC[C@H](c3ccc(Cl)cc3)CC2)C(=O)c2ccccc21` [atovaquone], the “selection of resistant parasites, time to resistance” value (Dd2 parasites) was “Parasites resistant to atovaquone were selected”.
In the case of `CCN(CC)CCCC(C)Nc1ccnc2cc(Cl)ccc12` (stereo not shown) [chloroquine, reference compound], the “day post-infection on which parasites were detectable” value (P. berghei [9]) is reported as 10 days and the “day by which mice were cleared of parasitemia” value (P. falciparum [10]) is reported as at most 7 days.
